Assay results taken from patent US20020018792A1, “Skin care anti-sebum compositions containing 3,4,4-trichlorocarbanilide” (Unilever Home & Personal Care USA, Division of Conopco, Inc., priority 2000, published 2002).
“Also recorded” adds a separate entry of the source. Like-named read-outs stand apart in the source and are kept apart here.

Tests used:
human sebocytes [1] = assay: in vitro sebum suppression: 14C-acetate label remaining in sebocytes; type: cell-based; settings: for activity at 1 µM / activity at 10 µM: Homo sapiens, read-out: % of Control
Method: Secondary cultures of human sebocytes obtained from an adult […] were grown in 48-well tissue culture plates (Costar Corp.; Cambridge, Mass.) until two days post-confluence. Sebocyte growth medium consisted of Clonetics Keratinocyte Basal Medium (KBM) supplemented with 14 μg/ml bovine pituitary extract, 0.4 μg/ml hydrocortisone, 5 μg/ml insulin, […], 1.2×10^-10 M cholera toxin, 100 units/ml penicillin, and 100 μg/ml streptomycin. All cultures were incubated at 37° C. in the presence of 7.5% CO2. Medium was changed three times per week.
On the day of experimentation, the growth medium was removed and the sebocytes washed three times with sterile Dulbecco's Modified Eagle Medium (DMEM; phenol red free). Fresh DMEM was added to each sample (triplicates) with 1-5 microliter of test agent solubilized in ethanol. Controls consisted of addition of ethanol alone. Each plate was returned to the incubator for 20 hours.
This was followed by the addition of 14C-acetate buffer (5 mM final concentration, 56 mCi/mmol specific activity). Sebocytes were returned to the incubator for four hours afterwhich each culture was rinsed three times with phosphate buffered saline to remove unbound label. Radioactive label remaining in the sebocytes was harvested and counted using a Beckman scintillation counter.

human sebocytes [2] = assay: lactate dehydrogenase activity in sebocyte culture supernatant; type: cell-based; parameters: key: A340 at 5 min minus initial reading; higher = more LDH; settings: after 20 hours
Method: For the experiments summarized in Tables 1 and 2, lactate dehydrogenase amount was also measured. After 20 hours, 25 μl of supernatant was removed from each well and transferred to a 96-well plate. A vial of lactate dehydrogenase reagent (LD-L-20; Sigma Diagnostics; Cat 228-20) was reconstituted with 20 ml of distilled water. 200 μl of this reconstituted reagent was added to each well and the plate immediately analyzed at 340 nm. After exactly five minutes at room temperature, the plate was re-analyzed at 340 nm. The amount of lactate dehydrogenase activity was calculated by subtracting the initial reading from the five minute reading (this value indicated below in column headed “LDH”). The higher the number, the more lactate dehydrogenase is present. Increased lactate dehydrogenase numbers are associated with cellular crisis. Experimental samples were compared to the value obtained with the ethanol treated control.

CC1=C(/C=C/C(C)=C/C=C/C(C)=C/CO)C(C)(C)CCC1 [Retinol]
activity at 1 µM (human sebocytes [1]; Table 3, 1 μM): 104%
activity at 10 µM (human sebocytes [1]; Table 3, 10 μM): 102%

O=C(Nc1ccc(Cl)cc1)Nc1ccc(Cl)c(Cl)c1 [TCC, 3,4,4-trichlorocarbanilide]
LDH (human sebocytes [2]; Table 1, 1 μM, 340 nm five minute minus initial reading, control 0.094): 0.039
LDH (human sebocytes [2]; Table 1, 10 μM, 340 nm five minute minus initial reading, control 0.094): 0.059
LDH (human sebocytes [2]; Table 1, 100 μM, 340 nm five minute minus initial reading, control 0.094): 0.114
LDH (human sebocytes [2]; Table 1, 1 mM, 340 nm five minute minus initial reading, control 0.094): 0.190
LDH (human sebocytes [2]; Table 2, 100 nM, control 0.154): 0.137
LDH (human sebocytes [2]; Table 2, 500 nM, control 0.154): 0.136
LDH (human sebocytes [2]; Table 2, 1 μM, control 0.154): 0.183
% of Control (human sebocytes [1]; Table 1, 1 μM, 20 hours then 4 hours 14C-acetate): 70.4%
% of Control (human sebocytes [1]; Table 1, 10 μM, 20 hours then 4 hours 14C-acetate): 1.0%
% of Control (human sebocytes [1]; Table 1, 100 μM, 20 hours then 4 hours 14C-acetate): 0.8%
% of Control (human sebocytes [1]; Table 1, 1 mM, 20 hours then 4 hours 14C-acetate): 0.8%
sebum suppressive effectiveness compared with Phenol Red (human sebocytes [1]; Table 2): more effective than Phenol Red
% of Control (human sebocytes [1]; Table 2, 100 nM): 80.4%
% of Control (human sebocytes [1]; Table 2, 500 nM): 54.6%
% of Control (human sebocytes [1]; Table 2, 1 μM): 20.9%
sebum suppressive activity in the presence of retinol (retinoid) (human sebocytes [1]; Table 3): improved sebum suppressive activity; also recorded: significantly enhanced
% of Control (human sebocytes [1]; Table 3, 250 nM): 97.6%
% of Control (human sebocytes [1]; Table 3, 500 nM): 75.6%
% of Control (human sebocytes [1]; Table 3, 1 μM): 81.4%
% of Control (human sebocytes [1]; Table 3, 2.5 μM): 4.3%
sebum suppressive activity (human sebocytes [1]; summary of Tables 1-3): had sebum suppressive activity

O=S1(=O)OC(c2ccc(O)cc2)(c2ccc(O)cc2)c2ccccc21 [Phenol Red]
LDH (human sebocytes [2]; Table 2, 1 μM, control 0.154): 0.169
LDH (human sebocytes [2]; Table 2, 10 μM, control 0.154): 0.237
activity at 1 µM (human sebocytes [1]; Table 2, 1 μM): 91.4%
activity at 10 µM (human sebocytes [1]; Table 2, 10 μM): 70.9%
